In ChEMBL document CHEMBL3621146, “Design of Potent and Orally Active GPR119 Agonists for the Treatment of Type II Diabetes” (ACS Med Chem Lett, 2015):
Values after ≈ are worked out from the molar mass of the structure shown.

Tests used:
[1] = Fraction unbound in rat plasma; type: ADME, cell-free
[2] = Intrinsic clearance in rat liver microsomes; type: ADME; details: read-out: CLH
[3] = Lipophilicity, logD of the compound at pH 7 by HPLC method; type: physicochemical; details: buffer
[4] = Half life in rhesus monkey; type: ADME, organism-based, Macaca mulatta; details: in vivo
[5] = Oral bioavailability in rhesus monkey; type: ADME, organism-based, Macaca mulatta; details: in vivo
[6] = target: T1, Glucose-dependent insulinotropic receptor (Mus musculus) (UniProt Q7TQP3); test: Agonist activity at mouse GPR119 by cAMP assay relative to control; type: functional; design: concentration or dose not given beside the values
T1 sequence (whole entry): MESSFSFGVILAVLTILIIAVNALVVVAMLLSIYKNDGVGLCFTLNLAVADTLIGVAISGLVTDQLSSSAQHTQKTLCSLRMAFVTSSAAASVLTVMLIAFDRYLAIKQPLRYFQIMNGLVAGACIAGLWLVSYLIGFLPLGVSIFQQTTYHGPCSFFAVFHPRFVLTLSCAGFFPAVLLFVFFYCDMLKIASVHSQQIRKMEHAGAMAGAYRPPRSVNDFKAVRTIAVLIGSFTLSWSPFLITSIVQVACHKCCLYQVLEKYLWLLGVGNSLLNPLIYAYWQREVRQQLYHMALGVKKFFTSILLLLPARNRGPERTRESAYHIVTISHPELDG

[7] = Volume of distribution in Beagle dog; type: ADME, organism-based, Canis lupus familiaris; details: in vivo
[8] = Half life in Wistar Han rat at 0.5 mg/kg, iv LC-MS/MS method; type: ADME, organism-based; details: Wistar Han, in vivo
[9] = Half life in Beagle dog; type: ADME, organism-based, Canis lupus familiaris; details: in vivo
[10] = Solubility in SGF; type: physicochemical
[11] = Fraction unbound in dog plasma; type: ADME, cell-free, Canis lupus familiaris
[12] = Solubility in PEG200; type: physicochemical
[13] = Intrinsic clearance in monkey liver microsomes; type: ADME, Macaca mulatta; details: rhesus monkey, read-out: CLH
[14] = target: T2, Nuclear receptor subfamily 1 group I member 2 (Homo sapiens, UniProt O75469); test: Activation of human PXR; type: ADME
T2 sequence (O75469 whole entry): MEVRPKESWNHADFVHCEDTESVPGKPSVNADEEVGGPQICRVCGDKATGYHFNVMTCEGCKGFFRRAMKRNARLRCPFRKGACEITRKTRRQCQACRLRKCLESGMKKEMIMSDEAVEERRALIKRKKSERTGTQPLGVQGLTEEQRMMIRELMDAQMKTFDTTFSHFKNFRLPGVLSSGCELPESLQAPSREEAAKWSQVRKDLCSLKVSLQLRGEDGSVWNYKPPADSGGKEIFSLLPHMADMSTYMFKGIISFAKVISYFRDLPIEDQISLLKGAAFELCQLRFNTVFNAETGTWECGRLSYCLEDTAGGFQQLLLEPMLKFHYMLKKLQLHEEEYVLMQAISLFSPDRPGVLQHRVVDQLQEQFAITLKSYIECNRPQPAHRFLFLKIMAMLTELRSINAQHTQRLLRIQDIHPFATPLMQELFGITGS

[15] = Kinetic solubility in FaSSIF at pH 6.5; type: physicochemical; details: FaSSIF, read-out: Kinetic_solubility
[16] = Intrinsic clearance in dog liver microsomes; type: ADME, Canis lupus familiaris; details: read-out: CLH
[17] = target: T3, Glucose-dependent insulinotropic receptor (Homo sapiens, UniProt Q8TDV5); test: Agonist activity at human GPR119 expressed in CHO cells by cAMP assay; type: functional, cell-based
T3 sequence (Q8TDV5 whole entry): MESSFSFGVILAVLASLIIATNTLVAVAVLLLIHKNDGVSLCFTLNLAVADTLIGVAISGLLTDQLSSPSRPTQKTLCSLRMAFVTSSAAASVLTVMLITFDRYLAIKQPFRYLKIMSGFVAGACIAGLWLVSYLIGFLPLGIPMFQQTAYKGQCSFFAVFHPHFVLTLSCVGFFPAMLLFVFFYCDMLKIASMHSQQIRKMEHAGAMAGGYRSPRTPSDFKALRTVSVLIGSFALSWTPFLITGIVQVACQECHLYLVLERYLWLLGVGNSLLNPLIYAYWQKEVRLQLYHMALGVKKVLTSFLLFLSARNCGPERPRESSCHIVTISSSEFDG

[18] = Volume of distribution in Wistar Han rat at 0.5 mg/kg, iv LC-MS/MS method; type: ADME, organism-based; details: Wistar Han, in vivo
[19] = target: T2, Nuclear receptor subfamily 1 group I member 2; test: Activation of human PXR relative to control; type: ADME
[20] = Oral bioavailability in Wistar Han rat; type: ADME, organism-based; details: in vivo
[21] = Solubility in FaSSIF; type: physicochemical; details: simulated gi fluid
[22] = target: T4, Glucose-dependent insulinotropic receptor (Homo sapiens) (UniProt Q8TDV5); test: Agonist activity at human GPR119 by cAMP assay relative to control; type: functional; design: concentration or dose not given beside the values
T4 sequence (whole entry): T3 sequence (Q8TDV5 whole entry)

[23] = Volume of distribution in rhesus monkey; type: ADME, organism-based, Macaca mulatta; details: in vivo
Cavia porcellus = species: Cavia porcellus; test: Toxicity in guinea pig assessed as effect on cardiovascular parameters at 64 times over target clinical exposure level; type: organism-based, Heart; details: in vivo
[24] = Intrinsic clearance in human liver microsomes; type: ADME; details: read-out: CLH
[25] = Drug level in mouse blood at 10 mg/kg after 90 mins; type: ADME, organism-based; details: whole blood, read-out: Drug uptake
[26] = Drug level in mouse blood at 0.3 mg/kg after 90 mins; type: ADME, organism-based; details: whole blood, read-out: Drug uptake
[27] = Fraction unbound in human plasma; type: ADME, cell-free
Rattus norvegicus = test: Unbound volume of distribution in Wistar Han rat at 0.5 mg/kg, iv LC-MS/MS method; type: ADME, organism-based; details: in vivo
[28] = Drug level in mouse blood at 1 mg/kg after 90 mins; type: ADME, organism-based; details: whole blood, read-out: Drug uptake
[29] = Plasma clearance in Wistar Han rat at 0.5 mg/kg, iv LC-MS/MS method; type: ADME, organism-based
[30] = Drug level in mouse blood at 3 mg/kg after 90 mins; type: ADME, organism-based; details: whole blood, read-out: Drug uptake
[31] = Plasma clearance in Beagle dog; type: ADME, organism-based, Canis lupus familiaris
[32] = Plasma clearance in rhesus monkey; type: ADME, organism-based, Macaca mulatta
Mus musculus [33] = test: Reduction in blood glucose excursion in po dosed C57BL/6 Tac mouse by OGTT method; type: functional, organism-based
[34] = Oral bioavailability in Beagle dog; type: ADME, organism-based, Canis lupus familiaris; details: in vivo
[35] = Solubility in PEG400; type: physicochemical
Mus musculus [36] = test: Reduction in blood glucose excursion in po dosed C57BL/6 Tac mouse assessed as minimal dose for maximum efficacy by OGTT method; type: functional; details: read-out: MED
Cytochrome P450 3A4 = Cytochrome P450 3A4 (Homo sapiens, UniProt P08684); test: Inhibition of CYP3A4 (unknown origin)
[37] = Fraction unbound in rhesus monkey plasma; type: ADME, cell-free, Macaca mulatta
[38] = target: T5, Glucose-dependent insulinotropic receptor (Mus musculus, UniProt Q7TQP3); test: Agonist activity at mouse GPR119 by cAMP assay; type: functional
T5 sequence (Q7TQP3 whole entry): T1 sequence (whole entry)

[39] = Clearance in Wistar Han rat at 0.5 mg/kg, iv LC-MS/MS method; type: ADME, organism-based; details: in vivo

Chain of Cytochrome P450 3A4 (P08684 whole entry): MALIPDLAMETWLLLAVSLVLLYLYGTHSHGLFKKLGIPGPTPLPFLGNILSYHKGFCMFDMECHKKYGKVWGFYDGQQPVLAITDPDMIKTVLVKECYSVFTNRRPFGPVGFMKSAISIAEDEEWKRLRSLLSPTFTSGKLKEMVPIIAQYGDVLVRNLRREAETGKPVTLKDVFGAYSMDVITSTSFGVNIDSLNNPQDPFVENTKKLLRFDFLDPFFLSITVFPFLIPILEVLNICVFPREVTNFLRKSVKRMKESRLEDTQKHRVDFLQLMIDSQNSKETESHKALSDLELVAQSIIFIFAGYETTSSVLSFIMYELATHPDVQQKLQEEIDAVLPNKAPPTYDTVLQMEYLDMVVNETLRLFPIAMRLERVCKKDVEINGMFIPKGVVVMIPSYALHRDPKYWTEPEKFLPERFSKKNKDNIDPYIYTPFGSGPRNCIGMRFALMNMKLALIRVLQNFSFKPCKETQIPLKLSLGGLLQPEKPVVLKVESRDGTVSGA

Compound: COCc1cnc(N2CCC([C@H]3C[C@H]3COCc3ccc(S(C)(=O)=O)cc3F)CC2)nc1
- fraction unbound [1]: 0.041
- CLint scaled [2]: 1100 mL/min/kg
- logD [3]: 3.5
- half-life [4]: 2.3 h
- bioavailability [5]: 5%
- Activity [6]: 97%
- Vd [7]: 6.5 L/kg
- half-life [8]: 1 h
- half-life [9]: 17 h
- solubility [10]: 870 µg/mL (≈ 1880 µM)
- fraction unbound [11]: 0.055
- solubility [12]: 129000 µg/mL (≈ 278000 µM)
- CLint scaled [13]: 319 mL/min/kg
- EC50 [14]: > 30000 nM
- solubility kinetic [15]: 161 µM (≈ 74.6 µg/mL)
- CLint scaled [16]: 60 mL/min/kg
- EC50 [17]: 2.1 nM
- Vd [18]: 2.2 L/kg
- Activity [19]: 39%
- bioavailability [20]: 27%
- solubility [21]: 56 µg/mL (≈ 121 µM)
- Activity [22]: 88%
- Vd [23]: 2 L/kg
- Activity (Cavia porcellus): Non-toxic
- CLint scaled [24]: 42 mL/min/kg
- concentration at 1.5 h [25]: 622 nM
- concentration at 1.5 h [26]: 18 nM
- fraction unbound [27]: 0.049
- Vdu (Rattus norvegicus): 54 L/kg
- concentration at 1.5 h [28]: 86 nM
- clearance [29]: 41 mL/min/kg
- concentration at 1.5 h [30]: 302 nM
- clearance [31]: 6 mL/min/kg
- clearance [32]: 16 mL/min/kg
- Activity (Mus musculus [33]): Dose-dependent effect
- bioavailability [34]: 60%
- solubility [35]: 325000 µg/mL (≈ 701000 µM)
- minimal effective dose (Mus musculus [36]): 3 mg/kg
- IC50 (Cytochrome P450 3A4): 40000 nM
- fraction unbound [37]: 0.032
- EC50 [38]: 1.9 nM

Compound: CS(=O)(=O)c1ccc(COC[C@@H]2C[C@@H]2C2CCN(c3ncc(Cl)cn3)CC2)nc1
- fraction unbound [1]: 0.016
- CLint scaled [2]: 553 mL/min/kg
- logD [3]: 3.7
- Activity [6]: 56%
- half-life [8]: 1.8 h
- EC50 [17]: 8.7 nM
- Vd [18]: 1.3 L/kg
- Activity [22]: 53%
- Vdu (Rattus norvegicus): 81 L/kg
- clearance [39]: 9 mL/min/kg
- EC50 [38]: 3.6 nM
